Source: patent US11820822B2, “Methods for sensitizing cancer cells to T cell-mediated killing by modulating molecular pathways” (DANA-FARBER CANCER INSTITUTE, INC., priority 2017, dated 2023)

What was measured:
[1] = tested on: B16F10-Cas9 cells co-cultured with Pmel-1 T cells; assay: Genome-scale CRISPR-Cas9 screen, selection with Pmel-1 T cells; assay type: cell-based, mouse; details: for Pmel+ (sgRNA Log(2) fold change, Pmel-1 selection versus control T cells): Table 3, B16F10-Cas9 cells pre-treated with IFNγ, co-cultured with Pmel-1 T cells 1:1 for three days, negative = depleted, positive = enriched; for logFC: Log(2) fold change of gRNAs per gene, genes depleted in Pmel-1 screen
[2] = tested on: B16F10-Cas9 cells pulsed with SIINFEKL peptide, co-cultured with OT-I T cells; assay: Genome-scale CRISPR-Cas9 screen, selection with OT-I T cells; assay type: cell-based, mouse; details: for OT1 (sgRNA Log(2) fold change, OT-I selection versus control T cells): Table 3, B16F10-Cas9 cells pulsed with SIINFEKL, co-cultured with OT-I T cells 1:1 for one day, negative = depleted, positive = enriched; for logFC: Log2 fold change of gRNAs per gene, OT-I screen, genes depleted (FDR < 0.05)

| Substance | Pmel+ (sgRNA Log(2) fold change, Pmel-1 selection versus control T cells) [1] | OT1 (sgRNA Log(2) fold change, OT-I selection versus control T cells) [2] | logFC [1] | logFC [2] |
| --- | --- | --- | --- | --- |
| AAAAATTCAACGTTGAAACA (chemistry not fully specified) | -3.43 | -1.37 | – | – |
| AAAACGGTCTCAAGCCAATG (chemistry not fully specified) | 1.05 | -3.05 | – | – |
| AAACAAGAGCACACTCCCCG (chemistry not fully specified) | 1.49 | -2.06 | – | – |
| AAACATATAGTGTACCTCTA (chemistry not fully specified) | 10.21 | 2.36 | – | – |
| AACTTCAGTAGCGGGCGACG (chemistry not fully specified) | 0.00 | -2.23 | – | – |
| AAGACATATAGTTATCAGCA (chemistry not fully specified) | -1.83 | -2.22 | – | – |
| AAGGGCCACTTACAATTAGG (chemistry not fully specified) | 2.10 | -0.44 | – | – |
| AAGTCCTAGATAAAGCACAT (chemistry not fully specified) | 3.43 | 3.13 | – | – |
| AATGCTGACGACTTTCAATG (chemistry not fully specified) | 0.00 | -2.31 | – | – |
| ACACAACGCTAAGACAGTCG (chemistry not fully specified) | -0.22 | -3.60 | – | – |
| ACAGATACGGAGTGTCCCGT (chemistry not fully specified) | 1.90 | 2.85 | – | – |
| ACAGCCTCCCAATATCTCAG (chemistry not fully specified) | -0.54 | -3.56 | – | – |
| ACAGGGAAAGCATGGGACAC (chemistry not fully specified) | 0.76 | -2.35 | – | – |
| ACATTGATACGCACACTCAC (chemistry not fully specified) | 1.41 | -2.37 | – | – |
| ACCTCCGAATGATCAATGGG (chemistry not fully specified) | -0.84 | -2.52 | – | – |
| ACGACGAGGAGTTCGAATAC (chemistry not fully specified) | -0.86 | -2.76 | – | – |
| ACGCAATGAAAAGGTTTAGG (chemistry not fully specified) | 2.19 | -2.24 | – | – |
| ACTAATGGACTCGCACACGT (chemistry not fully specified) | 2.09 | -0.42 | – | – |
| ACTCACTCTGGATAGCATAC (chemistry not fully specified) | 3.80 | 5.27 | – | – |
| ACTCGTACAGCTCCTGTGGT (chemistry not fully specified) | 2.62 | 0.67 | – | – |
| ACTTCAAAGTCCATGGCACA (chemistry not fully specified) | -0.63 | -2.45 | – | – |
| ACTTCTGATTGGCGATTCTG (chemistry not fully specified) | -2.49 | -3.78 | – | – |
| AGAAGCCACTCGGACTACTG (chemistry not fully specified) | 2.77 | -0.30 | – | – |
| AGAAGGCAGGCAGAGTGGTG (chemistry not fully specified) | -0.75 | -2.13 | – | – |
| AGAGATCTGCGCCATTTAAG (chemistry not fully specified) | -0.91 | -3.28 | – | – |
| AGATTGTCAACAATGGAACT (chemistry not fully specified) | 0.00 | -2.17 | – | – |
| AGCGTATAATCTTCGATCAG (chemistry not fully specified) | 1.35 | -2.46 | – | – |

| Substance | Pmel+ (sgRNA Log(2) fold change, Pmel-1 selection versus control T cells) [1] | OT1 (sgRNA Log(2) fold change, OT-I selection versus control T cells) [2] | logFC [1] | logFC [2] |
| --- | --- | --- | --- | --- |
| AGGGAACCTCACTTCCAAGT (chemistry not fully specified) | 4.83 | 3.12 | – | – |
| AGGTCACAATGTACCAACCC (chemistry not fully specified) | -2.61 | -1.71 | – | – |
| AGTTGGATCGCGAATAAAGA (chemistry not fully specified) | -2.35 | -2.70 | – | – |
| AGTTTGGAGCCCAGTAGGCA (chemistry not fully specified) | -2.19 | -2.77 | – | – |
| ATACACAACTATGATGCCAT (chemistry not fully specified) | 5.64 | -1.48 | – | – |
| ATAGAAATCTGACACTGCCG (chemistry not fully specified) | 0.00 | -2.12 | – | – |
| ATAGCACCAAAGCCTAACAA (chemistry not fully specified) | 0.00 | -2.27 | – | – |
| ATCACCTGGAGCATGCAGGA (chemistry not fully specified) | 2.72 | -0.29 | – | – |
| ATGAGGTACAGCAGAAAGGT (chemistry not fully specified) | 0.90 | -2.05 | – | – |
| ATGCAGATAATCCGCCAAAG (chemistry not fully specified) | 0.00 | -2.49 | – | – |
| ATGGGATTGATCGTTACTGG (chemistry not fully specified) | 0.00 | -2.32 | – | – |
| ATGTTGCCATCGTCACTGCA (chemistry not fully specified) | 3.04 | 0.41 | – | – |
| ATTTCAAGAGATTCTATGCT (chemistry not fully specified) | 1.73 | -2.59 | – | – |
| ATTTGGATTTCAATGTGAGG (chemistry not fully specified) | 3.20 | 5.19 | – | – |
| CAAAGTCTGCTGTCCGACCT (chemistry not fully specified) | 2.57 | 0.41 | – | – |
| CAAGAGCCAGACCTTGGATG (chemistry not fully specified) | 0.41 | -2.86 | – | – |
| CAATAATGCTGGTCTACGTG (chemistry not fully specified) | 2.58 | 0.89 | – | – |
| CACACCCTTACTGCCCGTCG (chemistry not fully specified) | -1.34 | -2.48 | – | – |
| CACCGGATCGTCCAATTCCG (chemistry not fully specified) | -0.88 | -2.82 | – | – |
| CACTGCGAGACCAATCTAGA (chemistry not fully specified) | 2.24 | 1.44 | – | – |
| Cd36 (guide TAGGATATGGAACCAAACTG; chemistry not fully specified) | – | – | −2.18 | – |
| Chic2 (guide GCTCAAGTACTCGCCCGACC; chemistry not fully specified) | – | – | – | −2.09 |
| Ctps | – | – | – | −1.69 |
| Mrps21 (guide GCGTCGTCGACTTATGACTT; chemistry not fully specified) | – | – | – | −2.09 |
| Nudcd2 (guide GGTTCCTTGCGGGACTCCGT; chemistry not fully specified) | – | – | – | −2.09 |
| Sepsecs (guide CACCGGATCGTCCAATTCCG; chemistry not fully specified) | – | – | – | −2.62 |
| Tial1 (guide AATGCAATTGTGCATATGGG; chemistry not fully specified) | – | – | −2.01 | – |
